Legend:
[1] = Sourness test, panelists detect presence of sourness by yes or no rating; set-up: species or system human
Procedure: (§1) A standard sweetness test method was employed. Briefly, training sample solutions made of sucrose in water at 1-5% concentration (Brix) at 1% increments were prepared. Reb-E test samples were made of Reb-E in water at 20-60 ppm (parts per million). Panelists were trained to recognize and differentiate between each training solution. Three test solutions of known sucrose concentrations were given to panelists to ensure equal training and to establish a baseline.
(§2) Test solutions were randomized using a random number generator. Two sets of tests were generated for each panelist. Saltine crackers were provided along with water for wash out between test solutions. Each panelist rated each of the solutions according to sweetness (in Brix) and sourness (yes or no). The intensity of each attribute was also collected.
The ability of Reb-E to overcome sourness was also measured, and compared to sucrose. Panelists were asked to detect the presence of sourness by a yes or no rating.

[2] = Standard sweetness test, panelists rate sweetness (Brix) of solutions in water; set-up: species or system human; conditions: for Brix (average): average of all panelists
Procedure: as §1, §2

[3] = Reb-E 20 PPM + 0.6% citric acid
[4] = Reb-E 40 PPM + 0.6% citric acid
[5] = Reb-E 50 PPM + 0.6% citric acid
[6] = Reb-E 60 PPM + 0.6% citric acid
[7] = sucrose 10 ×1000 PPM (1%) + 0.6% citric acid
[8] = sucrose 20 ×1000 PPM (2%) + 0.6% citric acid
[9] = sucrose 30 ×1000 PPM (3%) + 0.6% citric acid
[10] = sucrose 40 ×1000 PPM (4%) + 0.6% citric acid

SMILES: C=C1C[C@@]23CCC4[C@](C)(C(=O)OC5OC(CO)C(O)C(O)C5OC5OC(CO)C(O)C(O)C5O)CCC[C@@]4(C)[C@@H]2CCC1(OC1OC(CO)C(O)C(O)C1OC1OC(CO)C(O)C(O)C1O)C3 (stereo partly drawn) [Reb-E, 13-[(2-O-β-D-glucopyranosyl-β-D-glucopyranosyl)oxy] ent-kaur-16-en-19-oic acid-(2-O-β-D-glucopyranosyl-β-D-glucopyranosyl) ester]
- Sourness detected: No (number of ratings) [1, 3]: 2
- Sourness detected: Yes (number of ratings) [1, 3]: 10
- Sourness detected: No (number of ratings) [1, 4]: 2
- Sourness detected: Yes (number of ratings) [1, 4]: 4
- Sourness detected: No (number of ratings) [1, 5]: 1
- Sourness detected: Yes (number of ratings) [1, 5]: 11
- Sourness detected: No (number of ratings) [1, 6]: 0
- Sourness detected: Yes (number of ratings) [1, 6]: 6
- Effectiveness in covering the sourness compared to sucrose solutions ([1]; within the tested range): not as effective in covering the sourness as compared to sucrose solutions
- Correlation between sweetness and concentration (FIG. 1) ([2]; Reb-E 20-60 ppm): near linear correlation
- Brix (average) ([2]; Reb-E 20 PPM in water + 0.6% citric acid): 1.2 Brix
- Brix (average) ([2]; Reb-E 40 PPM in water + 0.6% citric acid): 2.1 Brix
- Brix (average) ([2]; Reb-E 50 PPM in water + 0.6% citric acid): 2.2 Brix
- Brix (average) ([2]; Reb-E 60 PPM in water + 0.6% citric acid): 2.6 Brix

SMILES: OC[C@H]1O[C@@](CO)(O[C@H]2O[C@H](CO)[C@@H](O)[C@H](O)[C@H]2O)[C@@H](O)[C@@H]1O [Sucrose, sucrose, reference compound]
- Sourness detected: No (number of ratings) [1, 7]: 4
- Sourness detected: Yes (number of ratings) [1, 7]: 8
- Sourness detected: No (number of ratings) [1, 8]: 2
- Sourness detected: Yes (number of ratings) [1, 8]: 4
- Sourness detected: No (number of ratings) [1, 9]: 5
- Sourness detected: Yes (number of ratings) [1, 9]: 1
- Sourness detected: No (number of ratings) [1, 10]: 2
- Sourness detected: Yes (number of ratings) [1, 10]: 4
- Brix (average) ([2]; sucrose 10 ×1000 PPM (1%) in water + 0.6% citric acid): 1.3 Brix
- Brix (average) ([2]; sucrose 20 ×1000 PPM (2%) in water + 0.6% citric acid): 2.6 Brix
- Brix (average) ([2]; sucrose 30 ×1000 PPM (3%) in water + 0.6% citric acid): 3.4 Brix
- Brix (average) ([2]; sucrose 40 ×1000 PPM (4%) in water + 0.6% citric acid): 5.2 Brix

From patent US11911497B2, “Rebaudioside E and food products sweetened with rebaudioside E” (Conagen Inc., priority 2013, dated 2024)
